“Also recorded” adds a separate entry of the source.
Assays:
[1] = tested on: PRMT1-WT / PRMT1-E153Q oligomers; experiment: MALDI-MS methylation states of R4 peptide by PRMT1-WT with added PRMT1-E153Q; assay type: biochemical, human; conditions: 0.5 μM PRMT1-WT, 0-2 μM PRMT1-E153Q
Description: (§1) It is known that PRMT1 can mono- and di-methylate an arginine residue on a protein or peptide substrate sequence, which results in monomethylarginine and asymmetric dimethylarginines product states. We attempted to examine whether oligomerization promotes PRMT1 ability to generate multiple methylation states in substrates. We used a synthetic peptide with four possible arginine methylation sites for PRMT1: the R4 peptide (Ac-[…]). R4 peptide, SAM, and different concentrations of PRMT1 were mixed in an aqueous buffer to allow methylation to occur, and then the mixture was subjected to MALDI-MS analysis. […] Our rationale is that, even though PRMT1-E153Q is catalytically dead, it can still interact with PRMT1-WT, resulting in hybrid higher oligomers. Therefore, presenting varying amounts of PRMT1-E153Q to a fixed concentration of PRMT1-WT would be another ideal way to test how oligomerization impacts on PRMT1 activity. […] Next, the concentration of PRMT1-WT was kept constant at 0.5 μM, but the concentration of PRMT1-E153Q was changed (Fig. 4). […] We further tested the methylation of the H4 peptide by 0.1 μM PRMT1-WT with the presence of PRMT1-E153Q.
Figure 4 Determine the methylation state of R4 peptide by PRMT1 and PRMT1-E153Q oligomers formation. PRMT1 and PRMT1-E153Q was incubated on ice for 20 min before the addition of 10 μM R4 and 50 μM of SAM. […]

PRMT1-WT = molecular target: T1, PRMT1-WT (Homo sapiens, UniProt Q99873); experiment: Radiometric P81 filter-binding assay, PRMT1-WT concentration dependence; assay type: biochemical; conditions: 50 μM peptide, 2 μM [3H]-SAM and 48 μM SAM, 30 min, room temperature, pH 8.0
T1 construct: His-MBP (N, cleaved yes); made in house; host or cells: Escherichia coli BL21 (DE3) RIPL
Description: We used the phosphocellulose P81 filter paper–binding assay to measure the catalytic activity of PRMT1 at different concentrations on individual peptides. Each reaction mixture was composed of PRMT1-WT at varied concentrations, at fixed concentrations of SAM and peptide. The reaction mixture was quenched with isopropanol, transferred to the P81 filter paper, and washed with sodium bicarbonate buffer (pH 9). […] The measured count-per-minute (CPM) values correlated directly with the amounts of methylated peptide products. In a typical enzymatic catalysis, the product should be formed linearly as a function of enzyme concentration.
Various concentrations of PRMT1-WT were incubated with radioactive 2 μM [3H]-SAM and 48 μM SAM and 50 μM of indicated peptides for 30 min. The reaction was quenched with 100% isopropanol.
The reaction buffer consisted of 50 mM Hepes pH 8.0, 10 mM NaCl, 0.5 mM EDTA, and 0.5 mM DTT. The reaction was incubated at room temperature for 30 min after being initiated with ^3H-SAM SAM. An equal amount of 100% isopropanol to the total reaction volume was used to quench the reaction. The reaction liquid was transferred onto the phosphocellulose P81 filter paper (1.1 cm × 2 cm, Protein Chemistry & Metabolism Unit at St Vincent's Institute of Medical Research). The P81 filter papers containing the samples were left at room temperature for 30 min to airdry. […]

PRMT1 [2] = molecular target: T2, PRMT1 (Homo sapiens, UniProt Q99873); experiment: MALDI-MS methylation states of R4 peptide by PRMT1-WT; assay type: biochemical; conditions: 0.5 μM vs 1 μM PRMT1, 10 μM R4, 50 μM SAM, 30 min
T2 construct: human PRMT1 protein (amino acid residue 11–353); His6; made in house
Description: as §1
Figure 3 Determine the methylation state of R4 peptide by PRMT1 high-order oligomers. The reaction consisted of 0 μM (A), 0.5 μM (B), 1 μM (C) of PRMT1, 10 μM R4 peptide, and 50 μM SAM for 30 min at room temperature. […]

R4 peptide = experiment: MALDI-MS methylation activity of PRMT1-E153Q and PRMT1-WT on R4 peptide; assay type: biochemical; conditions: 2 μM PRMT1, 10 μM R4, 50 μM SAM, 30 min, room temperature
Description: as §1
The reaction buffer contained 50 mM Hepes pH 8.0, 10 mM NaCl, 0.5 mM EDTA, and 0.5 mM DTT. The reaction consisted of PRMT1 at various concentrations, 10 μM of R4 (Peptide Sequence: Ac-[…]), and 50 μM of SAM. […]

PRMT1 [3] = molecular target: T2, PRMT1; experiment: Dynamic light scattering of PRMT1 oligomers; assay type: physicochemical; conditions: no denaturant, 50 mM Hepes pH 8, 10 mM NaCl, 0.5 mM EDTA, 0.5 mM DTT, 25 °C, average of three runs of 25 scans
Description: Dynamic light scattering (DLS) uses a laser to measure the particle size distribution ([26]). The DLS can give information regarding the heterogeneity of protein in a sample ([27]). In the past, DLS was used to study microbial and viral structure ([28]). Nowadays, DLS is a popular method for studying nanoparticles, liposomes, and exosomes ([29], [30], [31], [32]). Researchers have also used DLS to study the protein folding of bovine serum albumin ([33]). Therefore, we envisage that the DLS can be utilized to analyze the size changes of PRMT1 oligomeric compositions in an aqueous solution. We expect to see an increase in size with increasing protein concentrations. The prepared PRMT1 protein at varied concentrations was allowed to incubate in the aqueous buffer for equilibrium on ice for 10 min. The protein solution was filtered with 0.2-micron filter to remove any big interfering particles. The protein size was analyzed using a Malvern Zetasizer instrument. We took an average of three runs with about 25 scans each time to evaluate the data. […] Guanidine hydrochloride is a popular protein denaturant ([34]). […] As a negative control, we incubated PRMT1 in the presence of 6 M guanidine hydrochloride to disrupt oligomer formation. […] A literature reported that guanidine thiocyanate is a stronger denaturant than guanidine hydrochloride ([35]).
Figure 2 Oligomerization of PRMT1 detection by dynamic light scattering. Various concentrations of PRMT1 were incubated on ice for 10 min, then filtered by 0.2-micron syringe filter and collected data from the DLS. The top line with black circle indicates PRMT1 without denaturant. The open triangle and hexagon lines indicated PRMT1 oligomeric structure disrupted by 6 M guanidine hydrochloride and 5 M guanidine thiocyanate, respectively.
Indicated concentrations of PRMT1 were incubated for 10 min on ice with buffer (50 mM Hepes pH 8, 10 mM NaCl, 0.5 mM EDTA, 0.5 mM DTT) and filtered through the 0.22 μm syringe filter. For the experiment to disrupt the oligomer formation, 6 M of guanidine hydrochloride or 5 M of guanidine thiocyanate was added to the reaction. The samples were injected into the 1 ml disposable cuvette and measured by Zetasizer Nano ZS (Malvern Instruments) at 25 °C. Three measurements of 25 scans each were collected to average. The data was analyzed by the Malvern Zetasizer software v7.10.

T2 sequence (Q99873 11-353 isoform Q99873-3): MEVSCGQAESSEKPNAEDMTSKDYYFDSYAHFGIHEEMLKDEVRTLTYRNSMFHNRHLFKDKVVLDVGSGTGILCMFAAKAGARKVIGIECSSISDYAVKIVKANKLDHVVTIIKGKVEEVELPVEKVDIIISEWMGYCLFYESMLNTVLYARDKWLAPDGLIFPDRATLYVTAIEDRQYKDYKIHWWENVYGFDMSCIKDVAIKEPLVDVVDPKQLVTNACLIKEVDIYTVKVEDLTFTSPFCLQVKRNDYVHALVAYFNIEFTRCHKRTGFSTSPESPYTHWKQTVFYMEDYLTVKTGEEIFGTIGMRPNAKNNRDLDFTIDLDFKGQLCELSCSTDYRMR
T1 sequence (Q99873 11-353 isoform Q99873-3): as above

Row | Substance | R4 methylation states vs PRMT1-E153Q concentration [1] | PRMT1 enzymatic activity (CPM) vs PRMT1 concentration (PRMT1-WT) | methylation states observed (PRMT1 [2]) | number of methylation states in R4 substrate by PRMT1-WT (R4 peptide) | Z-average vs PRMT1 concentration (PRMT1 [3])
1 | Ac-GGRGGFGGRGGKGGRGGFGGRGGFG [R4 peptide, synthetic peptide with four possible arginine methylation sites for PRMT1] | the amounts of all of the different methylation states increased as more and more PRMT1-E153Q protein was added; also recorded: hexa- and hepta-methylated R4 peptides appeared when PRMT1-E153Q was increased up at 2 μM | increase as higher-order oligomeric structures were formed | multimethylated by PRMT1, from monomethylation to penta-methylation and hexa-methylation; also recorded: the hexa-methylation peak was only observed at 1 μM |  | 
2 | protein arginine methyltransferase 1 [PRMT1] |  |  |  | up to six methylation states in the R4 substrate | increased gradually with the increase in PRMT1 concentration
